Results on 35 compounds are retold here after a melting point compilation (Tetko et al.; mined from patent text by program, amines drawn as free bases though some values may be those of a salt).

Each structure is given as a SMILES string. Where only a bound is given, the exact number is not on record here.

As to `COc1cc2c(c(C(C)(C)C)c1)OC(=O)C2=C1C(=O)Nc2c(Br)cc(Br)cc21`, the melting point (in general, the temperature, or range, at which the solid turns liquid) fell in the range of 303 to 314 °C.
Under `CCC(CCOC)n1cc(Cl)nc(N2CCc3cc(Cl)cc(Cl)c32)c1=O` (stereo not given) stands 95 to 97 °C; under `N=C(N)Nc1ncc(CSCCNC2=NS(=O)N=C2N)s1` (stereo not given), 85 to 132 °C.
For `Cn1c(CO)nc2ccc(Sc3ccccc3)nc21`, the melting point lay within 119 to 120 °C.
As for `CC(C)(COC(c1ccccc1)(c1ccccc1)c1ccccc1)C(=O)O`, the melting point was in the range of 153 to 158 °C.
Under `COc1cc2c(cc1OCc1ccccc1)CCN(C(=O)c1ccc(C#N)cc1)C2=O` stands 158 to 159 °C; under `COc1ccc(NC(=O)c2ccccc2)cc1NCc1ccc2c(c1)OCCO2`, 174 to 175 °C; under `CCOCc1nc2c(N)nc3cc(O)ccc3c2n1CC(C)C`, more than 265 °C.
Under `c1ccc(CCNc2cc(-n3cccn3)nc(-c3cccs3)n2)nc1` stands 159 to 160 °C.
Under `COc1cc(O)c(C(=O)c2ccccc2)c(Cl)c1` stands 92 to 94 °C; under `Nc1c(N=O)c(=O)n(C2CC2)c(=O)n1C1CC1`, 230 °C.
As to `COc1ccc([C@@H]2O[C@H]2C(=O)O[C@@H]2CCCC[C@H]2c2ccccc2)cc1`, the melting point is 146 to 148 °C.
Consider `COc1nccnc1NS(=O)(=O)c1ccc(Cl)s1`, for which the melting point is 119 to 120 °C.
Under `COC(=O)Cc1ccc2c(c1)CC(NS(=O)(=O)c1ccc(Cl)cc1)C2` (stereo not given) stands 80 to 82 °C; under `CCCc1c(OCCCS(=O)(=O)c2ccc(CC(=O)O)cn2)ccc(C(C)=O)c1O`, 154 to 156 °C.
Under `O=Cc1nccn1Cc1cn(-c2ccc(Cl)c(Cl)c2)cn1` stands 130 to 131 °C; under `N#Cc1cc(-c2c3ccccc3cc3sc4ccccc4c23)cc(C#N)c1O`, 274 to 276 °C; under `COc1ccc(C2CCOCC2)c2sc(NC(=O)N3CCOCC3)nc12`, 217 to 220 °C.
Compound `Cn1nc(-c2c(F)cccc2Cl)nc1-c1ccc(CO)c(Cl)c1` came in with a melting point of 111 to 113 °C.
With `CC(Nc1nc(-c2ccccc2)cs1)c1ccc(CO)cc1` (stereo not given), the melting point was in the range of 88 to 90 °C.
Under `ClCCN(CCCl)CCOc1ccc(Nc2c3ccccc3nc3c(OCCN(CCCl)CCCl)cccc23)cc1` stands 105 to 106 °C.
Turning to `CCOc1cc(-c2cc(C(F)(F)F)n3ncc(C(=O)O)c3n2)ccc1C(F)(F)F`, the melting point was 264 °C.
Under `c1ccc(CNCc2n[nH]c(-c3ccc(CN4CCCCCC4)s3)n2)cc1` stands 155 to 157 °C.
`O=C(O)c1ccc(CC2(C(=O)O)CCCN2C(=O)Nc2cc(Cl)cc(Cl)c2)cc1` (stereo not given) yielded a melting point of 145 °C.
Under `O=C(O)c1cn2c(nc1=O)CCCCC2` stands 198 °C.
Under `Cc1ccc2c(c1)C=Cn1c(n[nH]c1=O)C2` stands 232 to 234 °C; under `CCOC(=O)C(=CC=C(SC)C(=O)c1ccc(N2CCCCC2)cc1)N(C)C`, 113 °C.
Under `CN1CCN(Cc2nc3cccnc3n2CCO)CC1` stands 89.5 °C; under `Nc1cc(C(=O)O)cc(S(N)(=O)=O)c1NCCc1ccccc1`, 194 to 195 °C; under `O=C(N[C@H]1C[C@H](C(=O)O)Nc2cc(Cl)cc(Cl)c21)C(c1ccccc1)c1ccccc1` (relative stereo), 238 °C.
For `CCCc1c(OCCCOc2ccc3c(c2CCC)OC(C)(CCC(=O)O)CC3=O)ccc(C(C)=O)c1O` (stereo not given), the melting point fell in the range of 80 to 83 °C.
Under `CCOC(=O)C(C)(C)NC(=O)c1cccc(C2=NC(C)(C)Cc3c(CC#N)c(OC)c4c(c32)CC(C)(C)O4)c1` stands 126 to 128 °C; under `N#CCn1c2ccccc2c2nc3ccccc3nc21`, 231 to 232 °C; under `COc1c(F)cccc1C(=O)Cl`, 71 to 73 °C.
`Clc1nc(Cl)c2sc(Cl)nc2n1` registered a melting point of 121 to 122 °C.
